From patent US20150343016A1, “CHEMICAL ENTITIES AND THERAPEUTIC USES THEREOF” (The Regents of the University of Colorado, a body corporate, priority 2010, published 2015)

How the values were obtained:
FaDu cells = test: MTT assay, Bouvardin with ionizing radiation, FaDu (same-day treatment); assay type: cell-based, human
Experimental: (§1) “Combination Index” computation. Combination Indices were calculated using CalcuSyn software (Biosoft), which uses the method of Chou and Talalay. This method first computes drug-induced effect using the Hill Equation: where E is the measured effect; C is the drug concentration; Emax is the full range of drug effect, usually at or near 100%; IC50 is the drug concentration producing the median effect of 50%; and n is the curve shape parameter describing the steepness of the concentration-effect relationship. The Chou and Talalay method then linearizes the Hill Equation by logarithmic transformation as: where fu is the fraction of cells left unaffected after drug exposure, fa is the fraction of cells affected by the exposure, C is the drug concentration used, Cm is the concentration to achieve the median effect, and n is the curve shape parameter. Cm and n are equivalent to IC50 and n, respectively, in the Hill Equation. The values of n (obtained from the slope), nlog(Cm) (obtained from the absolute value of the intercept), and, therefore, Cm are obtained by plotting log(fu−1−1) versus log(C). These numbers are then used to compute the Combination Index (CI) according to the formula: CI=(D)1/(Dx)1+(D)2/(Dx)2 (26). (Dx)1 and (Dx)2 are the doses required to achieve a given effect level for each treatment, i.e. a specified value of Fraction Affected or Fa. (D)1 and (D)2 are the doses of each treatment in a given combination which gives the same Fa.
For FIG. 19 MTT assays were used to determine the effect of Bouvardin (concentrations in uM) in combination with ionizing radiation (in Gy). The data from same-day treatment of IR and Bouvardin are shown, for comparison with taxol-Bouvardin combination that were also applied on the same day. In general, CI values were lower for FaDu cells than for Det562 cells in two separate experiments (only one set is shown). On Det562 cells, CI values were about 1 for most combinations. CI value for Det562 cells at 0.001 uM/1Gy and at >0.06 uM are not included in the graph because the values are >10 and would have made smaller values harder to see. On FaDu cells, CI values were below 1 at concentrations of 0.03 or lower, were about 1 for 0.06 uM drug, and were over 1 at higher concentrations.
(§2) The growth inhibitory effects of Bouvardin with ionizing radiation (IR) were evaluated using a modified tetrazolium salt (MTT) assay. In the MTT assay, 1,000 to 2,000 viable cells were plated in 100 uL of growth medium in 96-well plates (Corning, Ithaca, N.Y.). Following an overnight incubation, drug was added in varying concentrations and the plates were irradiated on the same day (co-treatment) or 24 hr later (pre-treatment) and incubated for 6 to 7 days. The tetrazolium salt was added at a concentration of 0.4 mg/mL to each well following the 6- to 7-day treatment. The plates were incubated with the salt for 4 hours at 37° C. At 4 hours, the medium was aspirated off, leaving the dark blue formazan product at the bottom of the wells. The reduced MTT product was solubilized by adding […] of 0.2 N HCl in 75% isopropanol, 23% MilliQ water to each well. Thorough mixing was done using a Titertek multichannel pipetman. The absorbency of each well was measured using an automated plate reader (Molecular Devices, Sunnyvale, Calif.). All experiments were done in triplicate.

[1] = test system: 1586 Head and Neck Cancer cell line; test: MTT assay, Bouvardin with ionizing radiation, 1586 (pre-treated); assay type: cell-based, human; details: 1586 cells
Experimental: as §1, §2
MTT assays were used to determine the effect of Bouvardin (concentrations in uM) in combination with ionizing radiation (in Gy, X-axis). FIG. 14 depicts CI values for Bouvardin and radiation on 3 cell lines. Combination Index data from 3 different Head and Neck Cancer cell lines are shown. Black dashed lines represent a CI value of 1. CI values below 1 indicate synergy. 1586 and UM-SCC19 were pre-treated whereas HN31 was treated on the same day.

Structure (SMILES): COc1ccc(C[C@H]2C(=O)N[C@H](C)C(=O)N(C)[C@@H]3C(=O)N(C)[C@@H](Cc4ccc(O)c(c4)Oc4ccc(cc4)[C@H]3O)C(=O)N[C@@H](C)C(=O)N[C@H](C)C(=O)N2C)cc1 (stereo in doubt) [Bouvardin, bouvardin]
- Bouvardin concentrations at which synergy was seen when combined with radiation (FaDu cells; Det562 and FaDu (FIG. 19)): lower than 0.06 μM
- interaction of Bouvardin with IR (FaDu cells; FaDu): a wide range of effects, synergistic to antagonistic
- CI values, Bouvardin with IR (FaDu cells; FaDu, 0.06 uM drug): about 1
- CI values, Bouvardin with IR (FaDu cells; FaDu, concentrations higher than 0.06 uM): over 1
- CI values, Bouvardin with IR (FaDu cells; FaDu, concentrations of 0.03 or lower): below 1
- Combination Index ([1]; Bouvardin 0.001 uM + 1 Gy IR): 1.553
- Fraction Affected ([1]; Bouvardin 0.001 uM + 1 Gy IR): 0.254
- Combination Index ([1]; Bouvardin 0.001 uM + 2 Gy IR): 0.903
- Fraction Affected ([1]; Bouvardin 0.001 uM + 2 Gy IR): 0.23
- Combination Index ([1]; Bouvardin 0.001 uM + 4 Gy IR): 1.112
- Fraction Affected ([1]; Bouvardin 0.001 uM + 4 Gy IR): 0.503
- Combination Index ([1]; Bouvardin 0.003 uM + 1 Gy IR): 1.898
- Fraction Affected ([1]; Bouvardin 0.003 uM + 1 Gy IR): 0.264
- Combination Index ([1]; Bouvardin 0.003 uM + 2 Gy IR): 1.383
- Fraction Affected ([1]; Bouvardin 0.003 uM + 2 Gy IR): 0.303
- Combination Index ([1]; Bouvardin 0.003 uM + 4 Gy IR): 0.753
- Fraction Affected ([1]; Bouvardin 0.003 uM + 4 Gy IR): 0.51
- Combination Index ([1]; Bouvardin 0.006 uM + 1 Gy IR): 1.626
- Fraction Affected ([1]; Bouvardin 0.006 uM + 1 Gy IR): 0.301
- Combination Index ([1]; Bouvardin 0.006 uM + 2 Gy IR): 1.285
- Fraction Affected ([1]; Bouvardin 0.006 uM + 2 Gy IR): 0.371
- Combination Index ([1]; Bouvardin 0.006 uM + 4 Gy IR): 0.732
- Fraction Affected ([1]; Bouvardin 0.006 uM + 4 Gy IR): 0.634
- Combination Index ([1]; Bouvardin 0.01 uM + 1 Gy IR): 0.433
- Fraction Affected ([1]; Bouvardin 0.01 uM + 1 Gy IR): 0.45
- Combination Index ([1]; Bouvardin 0.01 uM + 2 Gy IR): 1.482
- Fraction Affected ([1]; Bouvardin 0.01 uM + 2 Gy IR): 0.518
- Combination Index ([1]; Bouvardin 0.01 uM + 4 Gy IR): 1.348
- Fraction Affected ([1]; Bouvardin 0.01 uM + 4 Gy IR): 0.604
- Combination Index ([1]; Bouvardin 0.03 uM + 1 Gy IR): 1.211
- Fraction Affected ([1]; Bouvardin 0.03 uM + 1 Gy IR): 0.537
- Combination Index ([1]; Bouvardin 0.03 uM + 2 Gy IR): 0.841
- Fraction Affected ([1]; Bouvardin 0.03 uM + 2 Gy IR): 0.628
- Combination Index ([1]; Bouvardin 0.03 uM + 4 Gy IR): 1.284
- Fraction Affected ([1]; Bouvardin 0.03 uM + 4 Gy IR): 0.624
- Combination Index ([1]; Bouvardin 0.06 uM + 1 Gy IR): 0.898
- Fraction Affected ([1]; Bouvardin 0.06 uM + 1 Gy IR): 0.584
- Combination Index ([1]; Bouvardin 0.06 uM + 2 Gy IR): 0.962
- Fraction Affected ([1]; Bouvardin 0.06 uM + 2 Gy IR): 0.677
- Combination Index ([1]; Bouvardin 0.06 uM + 4 Gy IR): 1.284
- Fraction Affected ([1]; Bouvardin 0.06 uM + 4 Gy IR): 0.813
- Combination Index ([1]; Bouvardin 0.1 uM + 1 Gy IR): 1.815
- Fraction Affected ([1]; Bouvardin 0.1 uM + 1 Gy IR): 0.607
- Combination Index ([1]; Bouvardin 0.1 uM + 2 Gy IR): 3.214
- Fraction Affected ([1]; Bouvardin 0.1 uM + 2 Gy IR): 0.68
- Combination Index ([1]; Bouvardin 0.1 uM + 4 Gy IR): 2.639
- Fraction Affected ([1]; Bouvardin 0.1 uM + 4 Gy IR): 0.712
- Combination Index ([1]; Bouvardin 0.3 uM + 1 Gy IR): 2.656
- Fraction Affected ([1]; Bouvardin 0.3 uM + 1 Gy IR): 0.682
- Combination Index ([1]; Bouvardin 0.3 uM + 2 Gy IR): 2.382
- Fraction Affected ([1]; Bouvardin 0.3 uM + 2 Gy IR): 0.731
- Combination Index ([1]; Bouvardin 0.3 uM + 4 Gy IR): 3.756
- Fraction Affected ([1]; Bouvardin 0.3 uM + 4 Gy IR): 0.708
- Combination Index ([1]; Bouvardin 0.6 uM + 1 Gy IR): 4.194
- Fraction Affected ([1]; Bouvardin 0.6 uM + 1 Gy IR): 0.688
- Combination Index ([1]; Bouvardin 0.6 uM + 2 Gy IR): 4.765
- Fraction Affected ([1]; Bouvardin 0.6 uM + 2 Gy IR): 0.743
- Combination Index ([1]; Bouvardin 0.6 uM + 4 Gy IR): 4.11
- Fraction Affected ([1]; Bouvardin 0.6 uM + 4 Gy IR): 0.745
- Combination Index ([1]; Bouvardin 1 uM + 1 Gy IR): 1.553
- Fraction Affected ([1]; Bouvardin 1 uM + 1 Gy IR): 0.254
- Combination Index ([1]; Bouvardin 1 uM + 2 Gy IR): 0.903
- Fraction Affected ([1]; Bouvardin 1 uM + 2 Gy IR): 0.23
- Combination Index ([1]; Bouvardin 1 uM + 4 Gy IR): 1.112
- Fraction Affected ([1]; Bouvardin 1 uM + 4 Gy IR): 0.503
